Laboratory results from the supplement of paper PMC6045584.
± gives the standard deviation of the averaged measurements.

Key:
ABIRATERONE = compound: C[C@]12CC[C@H](O)CC1=CC[C@@H]1[C@@H]2CC[C@]2(C)C(c3cccnc3)=CC[C@@H]12 [ABIRATERONE]; experiment: surviving fraction relative to DMSO-only wells; higher = less growth inhibition; conditions: exposure time: 5 days
Summary of the method: (§1)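 In 384-well plates, 250–500 log-phase tumour cells per well were given 24 hours before five days of continuous exposure to inhibitors at 0.5, 1, 5, 10, 50, 100, 500 and 1000 nM. Surviving fraction is luminescence from CellTiter-Glo, normalised to the median of wells containing DMSO alone. Reading took place after 10 minutes at room temperature.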

DASATINIB = compound: Cc1nc(Nc2ncc(C(=O)Nc3c(C)cccc3Cl)s2)cc(N2CCN(CCO)CC2)n1 [DASATINIB]; experiment: as above; conditions: exposure time: 5 days
Summary of the method: as §1

| Test System | surviving fraction (ABIRATERONE; 0.5 nM) | surviving fraction (ABIRATERONE; 1 nM) | surviving fraction (ABIRATERONE; 5 nM) | surviving fraction (ABIRATERONE; 10 nM) | surviving fraction (ABIRATERONE; 50 nM) | surviving fraction (ABIRATERONE; 100 nM) | surviving fraction (ABIRATERONE; 500 nM) | surviving fraction (ABIRATERONE; 1000 nM) | surviving fraction (DASATINIB; 0.5 nM) | surviving fraction (DASATINIB; 1 nM) | surviving fraction (DASATINIB; 5 nM) | surviving fraction (DASATINIB; 10 nM) | surviving fraction (DASATINIB; 50 nM) | surviving fraction (DASATINIB; 100 nM) | surviving fraction (DASATINIB; 500 nM) | surviving fraction (DASATINIB; 1000 nM) |
| --- | --- | --- | --- | --- | --- | --- | --- | --- | --- | --- | --- | --- | --- | --- | --- | --- |
| KPD BONE | 0.966 ± 0.05 | 0.993 ± 0.054 | 1.02 ± 0.012 | 1.07 ± 0.043 | 1.07 ± 0.054 | 1.09 ± 0.041 | 1.01 ± 0.035 | 0.976 ± 0.054 | 0.909 ± 0.063 | 0.851 ± 0.053 | 0.781 ± 0.044 | 0.73 ± 0.0072 | 0.579 ± 0.039 | 0.481 ± 0.03 | 0.39 ± 0.016 | 0.336 ± 0.025 |
| SNU475 LIVER | 1.03 ± 0.024 | 1.07 ± 0.035 | 1.05 ± 0.035 | 1.06 ± 0.045 | 1.02 ± 0.03 | 1.02 ± 0.071 | 1 ± 0.085 | 1.04 ± 0.016 | 0.799 ± 0.0098 | 0.774 ± 0.018 | 0.602 ± 0.021 | 0.519 ± 0.036 | 0.469 ± 0.02 | 0.349 ± 0.021 | 0.242 ± 0.025 | 0.255 ± 0.032 |
| JURKAT HAEMATOPOIETIC AND LYMPHOID TISSUE | 1.09 ± 0.027 | 1.106 ± 0.0066 | 1.09 ± 0.022 | 1.07 ± 0.016 | 1.08 ± 0.018 | 1.03 ± 0.037 | 1.01 ± 0.022 | 0.995 ± 0.029 | 1.033 ± 0.0046 | 0.984 ± 0.034 | 0.927 ± 0.011 | 0.892 ± 0.011 | 0.886 ± 0.043 | 0.785 ± 0.024 | 0.614 ± 0.028 | 0.432 ± 0.016 |
| MDAMB468 BREAST | 0.965 ± 0.013 | 1.04 ± 0.034 | 0.997 ± 0.079 | 1.07 ± 0.052 | 1.18 ± 0.13 | 1.12 ± 0.053 | 1.05 ± 0.11 | 0.961 ± 0.09 | 0.872 ± 0.069 | 0.881 ± 0.038 | 0.909 ± 0.028 | 0.836 ± 0.11 | 0.858 ± 0.099 | 0.718 ± 0.065 | 0.488 ± 0.055 | 0.481 ± 0.055 |
| HSSYII SYNOVIAL | 0.989 ± 0.03 | 0.972 ± 0.034 | 0.937 ± 0.013 | 0.974 ± 0.027 | 0.983 ± 0.068 | 0.966 ± 0.023 | 0.962 ± 0.048 | 0.957 ± 0.042 | 0.781 ± 0.031 | 0.791 ± 0.034 | 0.765 ± 0.029 | 0.743 ± 0.022 | 0.634 ± 0.0095 | 0.531 ± 0.047 | 0.489 ± 0.056 | 0.501 ± 0.037 |
| NCIH441 LUNG | 1.04 ± 0.067 | 1.02 ± 0.12 | 1.08 ± 0.14 | 1.01 ± 0.077 | 1.1 ± 0.065 | 1.05 ± 0.11 | 1.01 ± 0.046 | 0.948 ± 0.051 | 0.994 ± 0.053 | 1.01 ± 0.052 | 0.878 ± 0.085 | 0.921 ± 0.046 | 0.846 ± 0.058 | 0.557 ± 0.056 | 0.462 ± 0.073 | 0.341 ± 0.046 |
